{
  "source": "patent US7439351B2",
  "about": "“2′ or 3′ -deoxy and 2′, 3′-dideoxy-β-L-pentofuranonucleo-side compounds, method of preparation and application in therapy, especially as anti-viral agents” (The UAB Research Foundation, priority 1993, dated 2008)",
  "key": {"noninfected CEM-SS cells": {"test_system": "noninfected CEM-SS cells", "test": "Toxic effect on noninfected cells (formazan formation), CEM-SS", "settings": "at least 50% inhibition of formazan formation, 5 days", "experimental": "(§1) The toxic effect on the noninfected cells is assessed by calorimetric reaction based on the capacity of live cells to reduce 3-(4,5-dimethylthiozol-2-yl)-2,5-diphenyltetrazolium bromide to formazan after incubating for 5 days in the presence of various concentrations of the compounds."}, "noninfected PBM cells": {"test_system": "noninfected PBM cells", "test": "Toxic effect on noninfected cells (formazan formation), PBM", "settings": "at least 50% inhibition of formazan formation, 5 days", "experimental": "as §1"}, "noninfected PBMC": {"test_system": "noninfected PBMC", "test": "Toxic effect on noninfected cells (formazan formation), PBMC", "settings": "at least 50% inhibition of formazan formation, 5 days", "experimental": "as §1"}, "HIV [1]": {"test_system": "HIV", "settings": "prior art reports; listed as β-L-DDC; cited from earlier work"}, "HIV [2]": {"test_system": "HIV", "settings": "CEM cell culture; Mansuri et al. 1991; read-out: IC50 against HIV; cited from earlier work"}, "[3]": {"test_system": "herpes simplex viruses (HSV)", "settings": "cell cultures; Spadari et al. 1992; cited from earlier work"}},
  "note": "Entries after “also recorded” stand apart in the source; their conditions may differ.",
  "data": [
    {"smiles": "Cc1cn([C@H]2C[C@H](N=[N+]=[N-])[C@@H](CO)O2)c(=O)[nH]c1=O", "note": "[AZT, reference compound]", "values": [
      {"measurement": "CD50", "setting": "noninfected CEM-SS cells", "result": ">10^−4 M"},
      {"measurement": "CD50", "setting": "noninfected PBM cells", "result": "7e-05", "unit": "M"},
      {"measurement": "CD50", "setting": "noninfected PBMC", "result": "8e-05", "unit": "M"}
    ]},
    {"smiles": "Nc1ccn([C@@H]2CC[C@H](CO)O2)c(=O)n1", "note": "[Compound 21a, 2′,3′-dideoxy-β-L-cytidine]", "values": [
      {"measurement": "CD50", "setting": "noninfected CEM-SS cells", "result": "8.3e-05", "unit": "M"},
      {"measurement": "CD50", "setting": "noninfected PBM cells", "result": "10^−4 M"},
      {"measurement": "activity against HIV (in words)", "setting": "HIV [1]", "result": "relatively limited antiviral activity; also recorded: no activity against HIV"},
      {"measurement": "CD50", "setting": "noninfected PBMC", "result": "10^−4 M"},
      {"measurement": "IC50", "setting": "HIV [2]", "result": 0.66, "unit": "µM"}
    ]},
    {"smiles": "Nc1nc(=O)n([C@@H]2CC[C@H](CO)O2)cc1F", "note": "[Compound 21b, 2′,3′-dideoxy-β-L-5-fluorocytidine]", "values": [
      {"measurement": "CD50", "setting": "noninfected CEM-SS cells", "result": "9e-05", "unit": "M"},
      {"measurement": "CD50", "setting": "noninfected PBM cells", "result": "10^−4 M"},
      {"measurement": "CD50", "setting": "noninfected PBMC", "result": "10^−4 M"}
    ]},
    {"smiles": "Nc1ccn([C@H]2CC[C@@H](CO)O2)c(=O)n1", "note": "[DDC, reference compound]", "values": [
      {"measurement": "CD50", "setting": "noninfected CEM-SS cells", "result": "6e-05", "unit": "M"},
      {"measurement": "CD50", "setting": "noninfected PBM cells", "result": "7e-05", "unit": "M"},
      {"measurement": "CD50", "setting": "noninfected PBMC", "result": "2.5e-05", "unit": "M"}
    ]},
    {"smiles": "Cc1cn([C@@H]2C[C@@H](O)[C@H](CO)O2)c(=O)[nH]c1=O", "note": "[β-L-Thymidine]", "values": [
      {"measurement": "antiviral activity against HSV (in words)", "setting": "[3]", "result": "relatively limited antiviral activity"}
    ]}
  ]
}
